Results on 16 compounds are retold here after US11591355B2 (Peloton Therapeutics, Inc., priority 2017, dated 2023).

One test addresses T1, Human CD73 (Homo sapiens, UniProt P21589).
T1 construct: purchased R&D Systems; host or cells: CHO cells
T1 sequence (P21589 27-549): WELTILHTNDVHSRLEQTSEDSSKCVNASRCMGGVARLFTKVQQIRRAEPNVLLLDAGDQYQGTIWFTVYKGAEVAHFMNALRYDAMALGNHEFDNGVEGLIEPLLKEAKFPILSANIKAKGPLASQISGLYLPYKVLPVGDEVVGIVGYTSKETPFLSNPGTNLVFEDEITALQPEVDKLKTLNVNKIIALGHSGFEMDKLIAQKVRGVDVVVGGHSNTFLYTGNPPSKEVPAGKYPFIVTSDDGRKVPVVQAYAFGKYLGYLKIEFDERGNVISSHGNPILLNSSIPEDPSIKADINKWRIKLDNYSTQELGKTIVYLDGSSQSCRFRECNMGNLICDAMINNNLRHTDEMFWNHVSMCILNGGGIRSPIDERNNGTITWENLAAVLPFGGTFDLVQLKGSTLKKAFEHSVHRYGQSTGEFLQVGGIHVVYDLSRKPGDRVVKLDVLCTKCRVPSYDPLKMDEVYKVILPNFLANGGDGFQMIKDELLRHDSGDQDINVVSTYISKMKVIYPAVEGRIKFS
Put plainly: CD73 Enzyme Assay. It is filed as biochemical. To be noted: 0.25 nM hCD73, 25 μM AMP, kinetic read at 360 nm; read-out: CD73 Enzyme Assay IC50.

Test [1] concerns the target T2, CD73 on U138 human neuroglioma cells (Homo sapiens, UniProt P21589).
T2 construct: U138 cells were obtained from ATCC and cultured in DMEM with 10% FBS; host or cells: U138 human neuroglioma cells
T2 sequence (P21589 27-549): T1 sequence (P21589 27-549)
Nature of the test: CD73 Cell-Based Assay. To be noted: U138 cells, AMP substrate, 2 hours at 37° C., inorganic phosphate by malachite green. The gist of the method: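 Whole U138 cells washed free of phosphate were incubated with 200 μM AMP (mixture concentration before equal-volume addition) plus compound in HEPES-buffered saline, pH 7.4, for 2 h at 37 °C, 5% CO2. Adenosine-forming activity read as inorganic phosphate released into supernatant by malachite green.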

As a reminder, the IC50 is the midpoint of a concentration-inhibition curve. With `O=P(O)(COC[C@H]1O[C@@H](n2ccc3c(NC4CCCC4)nc(Cl)nc32)[C@H](O)[C@@H]1O)OCC(F)(F)F` [Compound 232, [(2R,3S,4R,5R)-5-[2-chloro-4-(cyclopentyl-amino)pyrrolo[2,3-d]-pyrimidin-7-yl]-3,4-dihydroxy-tetrahydro-furan-2-yl]methoxy-methyl-(2,2,2-trifluoro-ethoxy)phosphinic acid], the IC50 (at Human CD73; in test [1]) was 10 to 100 nM throughout.

Take `O=P(O)(O)COC[C@H]1O[C@@H](n2ccc3c(NC4CC5CC5C4)nc(Cl)nc32)[C@H](O)[C@@H]1O` (stereo partly drawn) [Compound 102, [(2R,3S,4R,5R)-5-[4-(3-bicyclo[3.1.0]-hexanylamino)-2-chloro-pyrrolo[2,3-d]-pyrimidin-7-yl]-3,4-dihydroxy-tetrahydro-furan-2-yl]methoxy-methylphosphonic acid]: the half-inhibitory concentration (IC50) (on Human CD73; in test [1]) was below 10 nM each time.

With `CCNc1nc(Cl)nc2c1ccn2[C@@H]1O[C@H](COCP(=O)(O)O)[C@@H](O)[C@H]1O` [Compound 98, [(2R,3S,4R,5R)-5-[2-chloro-4-(ethylamino)-pyrrolo[2,3-d]-pyrimidin-7-yl]-3,4-dihydroxy-tetrahydro-furan-2-yl]methoxy-methylphosphonic acid], the 50% inhibitory concentration (IC50) (on Human CD73; in test [1]) was 10 to 100 nM each time.

With `O=P(O)(O)COC[C@H]1O[C@@H](n2cnc3c(NCc4ccccc4)nc(Cl)nc32)[C@H](O)[C@@H]1O` [Compound 3, [(2R,3S,4R,5R)-5-[6-(benzylamino)-2-chloro-purin-9-yl]-3,4-dihydroxy-tetrahydrofuran-2-yl]methoxymethyl-phosphonic acid], the IC50 lay in the range of 100 to 1000 nM on Human CD73 and 10 to 100 nM in test [1].

On to `CC(C)(C)C(=O)OCOP(=O)(O)CS(=O)(=O)C[C@H]1O[C@@H](n2ccc3c(NC4CCCC4)nc(Cl)nc32)[C@H](O)[C@@H]1O` [Compound 161, [(2S,3S,4R,5R)-5-[2-chloro-4-(cyclopentyl-amino)pyrrolo[2,3-d]-pyrimidin-7-yl]-3,4-dihydroxy-tetrahydro-furan-2-yl]methyl-sulfonylmethyl-(2,2-dimethylpropanoyl-oxymethoxy)phos-phinic acid], for which the IC50 (on Human CD73; in test [1]) was below 10 nM in each case.

As to `O=P(O)(O)COC[C@H]1O[C@@H](n2cnc3c(N4Cc5ccccc5C4)nc(Cl)nc32)[C@H](O)[C@@H]1O` [Compound 54, [(2R,3S,4R,5R)-5-(2-chloro-6-isoindolin-2-yl-purin-9-yl)-3,4-dihydroxy-tetrahydro-furan-2-yl]methoxy-methylphosphonic acid], the IC50 (on Human CD73; in test [1]) was 10 to 100 nM each time.

As for `Cc1ccc([C@H](C)Nc2nc(C#N)nc3c2ccn3[C@@H]2O[C@H](COCP(=O)(O)O)[C@@H](O)[C@H]2O)cc1` [Compound 91, [(2R,3S,4R,5R)-5-[2-cyano-4-[[(1S)-1-(p-tolyl)ethyl]amino]-pyrrolo[2,3-d]-pyrimidin-7-yl]-3,4-dihydroxy-tetrahydro-furan-2-yl]methoxy-methylphosphonic acid], the concentration for half-maximal inhibition (IC50) (at Human CD73; in test [1]) was below 10 nM each time.

Take `CC(Nc1ncnc2c1ncn2[C@@H]1O[C@H](COCP(=O)(O)O)[C@@H](O)[C@H]1O)c1ccccc1` (stereo partly drawn) [Compound 18, [(2R,3S,4R,5R)-3,4-dihydroxy-5-[6-(1-phenylethylamino)purin-9-yl]tetrahydrofuran-2-yl]methoxymethylphosphonic acid]: the 50% inhibitory concentration (IC50) (at Human CD73; in test [1]) was 100 to 1000 nM in each case.

In the case of `O=P(O)(O)COC[C@H]1O[C@@H](n2ccc3c(Nc4ccccc4)nc(Cl)nc32)[C@H](O)[C@@H]1O` [Compound 211, [(2R,3S,4R,5R)-5-(4-anilino-2-chloro-pyrrolo[2,3-d]-pyrimidin-7-yl)-3,4-dihydroxy-tetrahydro-furan-2-yl]methoxy-methylphosphonic acid], the IC50 (at Human CD73; in test [1]) was 100 to 1000 nM in each case.

As for `C[C@H](Nc1nc(Cl)nc2c1ccn2[C@@H]1O[C@H](COCP(=O)(O)O)[C@@H](O)[C@H]1O)c1ccc(F)cc1` [Compound 68, [(2R,3S,4R,5R)-5-[2-chloro-4-[[(1S)-1-(4-fluorophenyl)ethyl]-amino]pyrrolo[2,3-d]-pyrimidin-7-yl]-3,4-dihydroxy-tetrahydro-furan-2-yl]methoxy-methylphosphonic acid], the IC50 (on Human CD73; in test [1]) was 10 to 100 nM each time.

Regarding `CC[C@H](Nc1nc(Cl)nc2c1ccn2[C@@H]1O[C@H](COCP(=O)(O)O)[C@@H](O)[C@H]1O)c1ccccc1` [Compound 84, [(2R,3S,4R,5R)-5-[2-chloro-4-[[(1S)-1-phenylpropyl]amino]-pyrrolo[2,3-d]-pyrimidin-7-yl]-3,4-dihydroxy-tetrahydro-furan-2-yl]methoxy-methylphosphonic acid], the 50% inhibitory concentration (IC50) (on Human CD73; in test [1]) was below 10 nM throughout.

As to `CCOc1nc(NC2CCCC2)c2ccn([C@@H]3O[C@H](COCP(=O)(O)O)[C@@H](O)[C@H]3O)c2n1` [Compound 262, [(2R,3S,4R,5R)-5-[4-(cyclopentylamino)-2-ethoxy-pyrrolo[2,3-d]-pyrimidin-7-yl]-3,4-dihydroxy-tetrahydro-furan-2-yl]methoxy-methylphosphonic acid], the IC50 (at Human CD73; in test [1]) was 10 to 100 nM in each case.

For the compound `C[C@@H](Nc1nc(Cl)nc2c1ncn2[C@@H]1O[C@H](COCP(=O)(O)O)[C@@H](O)[C@H]1O)c1ccccc1` [Compound 20, [(2R,3S,4R,5R)-5-[2-chloro-6-[[(1R)-1-phenylethyl]amino]-purin-9-yl]-3,4-dihydroxy-tetrahydro-furan-2-yl]methoxy-methylphosphonic acid], the IC50 (on Human CD73; in test [1]) was 10 to 100 nM each time.

Turning to `O=P(O)(O)CS(=O)(=O)C[C@H]1O[C@@H](n2ccc3c(NC4CCC(F)(F)CC4)nc(Cl)nc32)[C@H](O)[C@@H]1O` [Compound 182, [(2S,3S,4R,5R)-5-[2-chloro-4-[(4,4-difluoro-cyclohexyl)amino]-pyrrolo[2,3-d]-pyrimidin-7-yl]-3,4-dihydroxy-tetrahydro-furan-2-yl]methyl-sulfonylmethylphos-phonic acid], the concentration for half-maximal inhibition (IC50) (at Human CD73; in test [1]) was below 10 nM each time.

Regarding `N#Cc1nc(N2CCC2)c2ccn([C@@H]3O[C@H](COCP(=O)(O)O)[C@@H](O)[C@H]3O)c2n1` [Compound 122, [(2R,3S,4R,5R)-5-[4-(azetidin-1-yl)-2-cyano-pyrrolo[2,3-d]-pyrimidin-7-yl]-3,4-dihydroxy-tetrahydro-furan-2-yl]methoxy-methylphosphonic acid], the half-maximal inhibitory concentration (IC50) (at Human CD73; in test [1]) was 10 to 100 nM in each case.

In the case of `C#Cc1nc(NC2CCCC2)c2ccn([C@@H]3O[C@H](COCP(=O)(O)O)[C@@H](O)[C@H]3O)c2n1` [Compound 244, [(2R,3S,4R,5R)-5-[4-(cyclopentylamino)-2-ethynyl-pyrrolo[2,3-d]-pyrimidin-7-yl]-3,4-dihydroxy-tetrahydro-furan-2-yl]methoxy-methylphosphonic acid], the half-maximal inhibitory concentration (IC50) (on Human CD73; in test [1]) was below 10 nM each time.
